Laboratory results: US7148250B2, “Indoles as NAALADase inhibitors” (Guilford Pharmaceuticals Inc., priority 2001, dated 2006)

How the values were obtained:
[1] = tested on: Brown Norway rats with unilateral elevation of intraocular pressure; test: Experimental rat glaucoma (IOP elevation), optic nerve fiber counting; assay type: in vivo; conditions: 10 mg/kg i.p. daily
Protocol: All experiments complied with the Association for Research in Vision and Ophthalmology Statement for the Use of Animals in Ophthalmic and Vision Research. 82 male Brown Norway rats (Rattus norvegicus), each weighing approximately 250 gm, were treated using procedures approved by the Animal Care Committee of the Johns Hopkins University School of Medicine. The rats were housed with a 12 hour light/12 hour dark cycle and fed ad libitum.
EXPERIMENTAL GLAUCOMA: Unilateral elevation of intraocular pressure (“IOP”) was produced in 56 rats by microinjection of hypertonic saline into episcleral veins, following procedures described in Morrison, J. et al., IOVS (March 1998) 39:526–531. Beginning on the day of IOP elevation, the rats were treated daily with intraperitoneal injections of either a vehicle (23 rats with 50 mM HEPES-buffered saline) or a NAALADase inhibitor (11 rats with 10 mg/kg of Compound A and 22 rats with 10 mg/kg of Compound B). 11 saline treated rats, 11 Compound A treated rats and 11 Compound B treated rats were sacrificed at 8 weeks, and the remaining rats at 12 weeks, after initial IOP elevation.
OPTIC NERVE COUNTING: The rats were sacrificed by exsanguination under deep pentobarbital anesthesia. They were perfused through the heart with 2% paraformaldehyde/2% glutaraldehyde in 0.1 M phosphate buffer, pH 7.2, and the eyes with attached optic nerves were removed. A cross-section of the optic nerve from both experimental (glaucoma or transection) and control eyes was removed 1.5 mm posterior to the globe, 1 mm in thickness, and post-fixed in 2% osmium tetroxide in buffer. These were processed into epoxy resin, sectioned at 1 micron and stained with toluidine blue.
The area of the optic nerve cross-section was measured by outlining its outer border at 10× magnification on an image analysis system (Universal Imaging Corp., Westchester, Pa.) with Synsys digital camera and Metamorph software. Three area measurements were taken and the mean value was determined. To measure the density and fiber diameter distributions, images were captured with a 100× phase contrast objective from 10 different areas of each nerve. These were edited to eliminate non-neural objects and the size of each axon internal to the myelin sheath (its minimum diameter) and the density of axons/square mm were calculated for each image and nerve. The mean density was multiplied by total nerve area to yield fiber number for each nerve. The total fiber number in glaucoma or transection nerves was compared to the normal, fellow eye of each rat to yield a percent loss value. The number of axons counted among the 10 images was an approximately 20% sample of the 80–90,000 axons in normal rat nerves. The person measuring axon number was masked to the protocol conducted on the nerves.

[2] = tested on: transgenic HD mice of the N171-82Q strain; test: Transgenic mouse model of Huntington's disease (rotarod, locomotion, survival); assay type: in vivo
Protocol: Transgenic HD mice of the N171-82Q strain and non-transgenic littermates were treated with NAALADase inhibitor Compound B (30 mg/kg) or a vehicle from 10 weeks of age. The mice were placed on a rotating rod (“rotarod”). The length of time at which the mouse fell off the rotarod was recorded as a measure of motor coordination. […] The treatment with Compound B had no effect on the rotarod performance of normal non-HD mice.
The total distance traveled by the mice was also recorded as a measure of overall locomotion.
The effects of Compound B and vehicle on the survival of transgenic HD mice (N171-82Q) were evaluated. Thirteen mice (six male and seven female) were assigned to the Compound B treatment group, and fourteen mice (six male and eight female) were assigned to the vehicle treatment group. Treatment was continued until all the mice died.

Question: Which results are given for `O=C(O)CCC(CCCS)C(=O)O` (centres unmarked) [Compound B, 2-(3-sulfanylpropyl)-pentanedioic acid]?
Answer: FIBER NUMBER ± SEM ([1]; 8 week group): 80785 ± 2121; PERCENT DIFFERENCE ± SEM in fiber number between glaucoma and normal eye ([1]; 8 week group, positive = fewer fibers in glaucoma eye): −0.82 ± 2.97%; FIBER NUMBER ([1]; 12 week group): 90504 ± 1718; PERCENT DIFFERENCE in fiber number between glaucoma and normal eye ([1]; 12 week group, positive = fewer fibers in glaucoma eye): −3.21 ± 2.86%; survival time versus vehicle treated counterparts ([2]; female transgenic HD mice (p-value=0.03)): significantly prolonged survival time; rotarod performance ([2]; normal non-HD mice, 30 mg/kg): no effect; median survival time ([2]; transgenic HD mice (N171-82Q), both sexes, not significant versus vehicle (p=0.07)): 184 days; rotarod performance (time on rotarod) versus vehicle ([2]; transgenic HD mice, 30 mg/kg from 10 weeks of age): stayed longer on the rotarod
